Results published in PMC2375326, “In vitro evaluation of amino acid prodrugs of novel antitumour 2-(4-amino-3-methylphenyl)benzothiazoles” (British Journal of Cancer, 2002).

Columns and labels:
NCI-H522 = assay: NCI in vitro cytotoxicity assay (SRB), NCI-H522; type: cell-based; settings: Homo sapiens, 48 h exposure, sulforhodamine B assay, mean graph, read-out: Log10 GI50 (NCI-H522) (converted)
Protocol: (§1) Cell culture and drug application procedures have been described previously ([Boyd and Paull, 1995]). Briefly, cell lines were inoculated into a series of 96-well microtiter plates, with varied seeding densities depending on growth characteristics of each cell line. Following a 24 h drug free incubation, test agents were added at five 10-fold dilutions with a maximum concentration of 100 μM. Cellular protein levels were determined after 48 h drug exposure by sulphorhodamine B colorimetry.

KM12 = assay: NCI in vitro cytotoxicity assay (SRB), KM12; type: cell-based; settings: Homo sapiens, 48 h exposure, sulforhodamine B assay, mean graph, read-out: Log10 GI50 (KM12) (converted)
Protocol: as §1

SF-295 = assay: NCI in vitro cytotoxicity assay (SRB), SF-295; type: cell-based; settings: Homo sapiens, 48 h exposure, sulforhodamine B assay, mean graph, read-out: Log10 GI50 (SF-295) (converted)
Protocol: as §1

[1] = test system: CYP1A1 protein expression in IGROV-1 cells; assay: Western blot of CYP1A1 protein, IGROV-1 lysates; type: cell-based, human; settings: 10 nM to 10 μM, 24 h, result not shown
Protocol: Whole cell lysates were prepared for examination of CYP1A1 protein expression from untreated MCF-7, IGROV-1 and HCT 116 cultures and following exposure of cells to compounds 1, 2, 2a, 2b, 3, 3a, 3b, 4, 4a and 4b. Following protein determination (n=3, [Bradford, 1976]) and addition of sample buffer, samples were boiled at 95°C for 5 min and solubilised proteins (50 μg) were separated by sodium dodecyl sulphate (SDS) polyacrylamide gel (10%) electrophoresis. Proteins were electroblotted to polyvinylidene difluoride (PVDF) membranes and probed for CYP1A1 protein with polyclonal antiserum specific for human CYP1A1/1A2 (Gentest Corporation). Secondary antibody was conjugated to alkaline phosphatase, and CYP1A1 was detected following brief (<10 min) incubation with bromochloroindolyl phosphate and nitro-blue tetrazolium in alkaline phosphatase buffer. Molecular weight markers and a positive control of recombinant CYP1A1 (Gentest Corporation), included in all blots, confirmed detection of 52 kDa CYP1A1 protein.

SMILES | GI50 (NCI-H522) [µM] | GI50 (KM12) [µM] | GI50 (SF-295) [µM] | CYP1A1 protein expression (Western blot) [1]
Cc1cc(-c2nc3cc(F)ccc3s2)ccc1N [Compound 2, 2-(4-Amino-3-methylphenyl)-5-fluorobenzothiazole] | 28.8 | 69.2 | 20.9 | 
Cc1cc(-c2nc3cc(F)ccc3s2)ccc1NC(=O)[C@@H](N)CCCCN [Compound 2b] |  |  |  | clearly observed
